Data taken from ChEMBL document CHEMBL5303304, “EUbOPEN Chemogenomics Library - IncuCyte” (2023).

Assays:
Format in all cases: toxicity, cell-based
[1] = tested on: HEK-293T; experiment: Incucyte cell viability with HEK293T; conditions: human, 10 µM, compound concentration 10 uM
[2] = tested on: Fibroblast; experiment: Incucyte cell viability with human fibroblast; conditions: 10 µM, compound concentration 10 uM
[3] = tested on: U2OS; experiment: Incucyte cell viability with U2OS; conditions: human, 10 µM, compound concentration 10 uM
Note: unitless GR value; below 1 slowed growth and below 0 cell loss.

SMILES | Growth Rate ([1]; 0 h, replicate number 2) | Growth Rate ([1]; 6 h, replicate number 1) | Growth Rate ([1]; 6 h, replicate number 2) | Growth Rate ([1]; 12 h, replicate number 1) | Growth Rate ([1]; 12 h, replicate number 2) | Growth Rate ([1]; 18 h, replicate number 1) | Growth Rate ([1]; 18 h, replicate number 2) | Growth Rate ([1]; 24 h, replicate number 1) | Growth Rate ([1]; 24 h, replicate number 2) | Growth Rate ([2]; 0 h, replicate number 1) | Growth Rate ([2]; 0 h, replicate number 2) | Growth Rate ([2]; 6 h, replicate number 2) | Growth Rate ([2]; 6 h, replicate number 1) | Growth Rate ([2]; 12 h, replicate number 1) | Growth Rate ([2]; 12 h, replicate number 2) | Growth Rate ([2]; 18 h, replicate number 1) | Growth Rate ([2]; 18 h, replicate number 2) | Growth Rate ([2]; 24 h, replicate number 1) | Growth Rate ([2]; 24 h, replicate number 2) | Growth Rate ([3]; 18 h, replicate number 1) | other results
CCN1C(=CC(C)=O)Sc2ccc(OC)cc21 | 0.69 | 0.07 | 0.47 | 0.47 | 0.28 | 0.25 | 0.43 | 0.2 | 0.46 | 0.98 | 0.16 | 0.95 |  |  |  |  |  |  |  |  | Growth Rate ([1]; 0 h, replicate number 1): 0.95; Growth Rate ([3]; 12 h, replicate number 2): 0.9
COc1ccccc1Nc1nc(-c2nn(Cc3c(F)cc(OCCCO)cc3F)c3ccccc23)ncc1OC |  |  |  |  |  |  |  |  |  |  | -0.85 | 0.53 | 0.3 | 0.59 | 0.41 | 0.85 | 0.58 | 0.77 | 0.85 |  | Growth Rate ([1]; 0 h, replicate number 1): 0.17; Growth Rate ([3]; 6 h, replicate number 2): 0.89; Growth Rate ([3]; 12 h, replicate number 2): 0.93; Growth Rate ([3]; 18 h, replicate number 2): 1; Growth Rate ([3]; 24 h, replicate number 2): 0.96
COc1cc2nc(C)nc(N[C@H](C)c3cc(N)cc(C(F)(F)F)c3)c2cc1O[C@H]1CCOC1 |  | 0.91 |  | 0.88 |  |  |  |  |  | -1 |  | -0.84 | 0.72 |  | 0.03 |  | 0.65 |  | 0.88 | 0.93 | Growth Rate ([3]; 0 h, replicate number 1): 0.75; Growth Rate ([3]; 6 h, replicate number 1): 0.51; Growth Rate ([3]; 6 h, replicate number 2): 0.96; Growth Rate ([3]; 24 h, replicate number 1): 0.83
CCCCNc1ncc2c(-c3ccc(CN4CCN(C)CC4)cc3)cn([C@H]3CC[C@H](O)CC3)c2n1 | 0.42 | -0.33 | -0.21 | -0.54 | -0.55 | -0.43 | -0.41 | -0.3 | -0.28 |  | -0.9 |  |  | 0.6 | 0.3 | -0.08 | -0.25 | -0.18 | -0.33 | 0.13 | Growth Rate ([3]; 0 h, replicate number 2): 0.17; Growth Rate ([3]; 12 h, replicate number 2): 0.4; Growth Rate ([3]; 18 h, replicate number 2): -0.13; Growth Rate ([3]; 24 h, replicate number 1): -0.14; Growth Rate ([3]; 24 h, replicate number 2): -0.3
CN1CCCN(C(=O)c2cccc(-c3ccc(/C=C4/C(=O)Nc5ccc(Cl)cc54)o3)c2)CC1 | -1 | -0.69 | -0.67 | -0.6 | -0.63 | -0.51 | -0.49 | -0.45 | -0.47 |  |  | -0.94 | -0.99 | -0.83 | -0.82 | -0.74 | -0.72 | -0.67 | -0.63 | -0.53 | Growth Rate ([3]; 0 h, replicate number 2): -0.78; Growth Rate ([3]; 6 h, replicate number 1): -0.67; Growth Rate ([3]; 6 h, replicate number 2): -0.6; Growth Rate ([3]; 12 h, replicate number 1): -0.7; Growth Rate ([3]; 12 h, replicate number 2): -0.54; Growth Rate ([3]; 18 h, replicate number 2): -0.44; Growth Rate ([3]; 24 h, replicate number 1): -0.48; Growth Rate ([3]; 24 h, replicate number 2): -0.42
c1ccc2nc(N3CCNCC3)ccc2c1 [QUIPAZINE] |  | 0.43 | 0.5 |  | 0.95 |  |  |  |  | 0.15 | 0.79 | 0.04 | 0.27 | -0.91 | 0.92 | 0.52 | 0.72 | 0.85 | 0.58 | 0.94 | Growth Rate ([3]; 0 h, replicate number 1): -0.85; Growth Rate ([3]; 6 h, replicate number 2): 0.58; Growth Rate ([3]; 12 h, replicate number 1): 0.55
Cc1cc(NC(=O)c2cccc(NC(=O)/C=C/CN(C)C)c2)ccc1Nc1nccc(-c2cccnc2)n1 | 0.65 | -0.35 | -0.41 | -0.26 | -0.35 | -0.23 | -0.32 | -0.19 | -0.26 | -1 | 0.14 | 0.32 | 0.07 | -0.2 | -0.15 | -0.24 | -0.3 | -0.22 | -0.29 | 0.46 | Growth Rate ([1]; 0 h, replicate number 1): 0; Growth Rate ([3]; 0 h, replicate number 1): -1; Growth Rate ([3]; 12 h, replicate number 1): 0.69; Growth Rate ([3]; 18 h, replicate number 2): 0.93; Growth Rate ([3]; 24 h, replicate number 1): 0.29; Growth Rate ([3]; 24 h, replicate number 2): 0.51
